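In this assay, cells in 96-well plates receive the compound at five concentrations for 48 hours. Endpoints are linearly interpolated between the surrounding concentrations. At the GI50, growth is halved. TGI denotes the concentration required for complete inhibition of growth.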

Some test systems named below: COLO 205 colon; LOX IMVI melanoma; NCI-H522 lung; OVCAR-8 ovarian; SF-295 CNS; SK-MEL-5 melanoma; SW-620 colon; UACC-257 melanoma; UO-31 renal; NCI-H23 lung.
Holding throughout (experiment): NCI tumour cell line growth inhibition, 48 h

For `c1cnc2c(c1)-n1cccc1C1(CCSCC1)NN2`, the TGI in the test with COLO 205 colon, in the test on LOX IMVI melanoma, in the test on NCI-H522 lung, with OVCAR-8 ovarian, in the test on SF-295 CNS and with SK-MEL-5 melanoma was greater than 100 µM in each case. For the same compound, the TGI in the test with SW-620 colon was greater than 100 µM; in the test with UACC-257 melanoma, greater than 100 µM; with UO-31 renal, 94.1 µM.

Regarding `S=C(Nc1ccc(-c2nc3ccccc3[nH]2)cc1)NC1CCCCC1`, the TGI in the test on COLO 205 colon was greater than 100 µM; in the test with NCI-H23 lung, 68.3 µM; in the test on NCI-H522 lung, 35.3 µM; with OVCAR-8 ovarian it was 83.7 µM; with SF-295 CNS, 30.3 µM; in the test on UACC-257 melanoma it was 57.1 µM. For the same compound, in the test with UO-31 renal, the TGI came to 71.6 µM. The GI50 in the test on LOX IMVI melanoma is 15.4 µM; in the test with NCI-H23 lung it was 23.2 µM; with NCI-H522 lung, 12.9 µM; in the test on OVCAR-8 ovarian, 26.3 µM; in the test on SF-295 CNS, 7.06 µM; in the test with SW-620 colon it was 31.6 µM. Moreover, the GI50 in the test on UACC-257 melanoma is 26.6 µM; in the test with UO-31 renal, 21.3 µM.

Turning to `C=CCCCCCCCCCCCC1CCC(CC)N1` (stereo not drawn), the TGI in the test on COLO 205 colon was 14.7 µM; in the test with LOX IMVI melanoma, 24.5 µM; in the test with NCI-H23 lung, 28.6 µM; in the test on NCI-H522 lung it was 13.5 µM; with SF-295 CNS, 27.8 µM; in the test with SK-MEL-5 melanoma, 25.5 µM. Also, the TGI was 24.6 µM in the test with SW-620 colon, 28 µM with UACC-257 melanoma and 23.8 µM with UO-31 renal.

For the compound `COC1=CC23C=CC1[C@@H](c1ccccc1)C2=C(C)C(=O)N3C(=O)NC1CCCCC1` (stereo partly drawn), the TGI in the test on LOX IMVI melanoma was found to be 31.2 µM; in the test on NCI-H23 lung it was 57.5 µM; in the test with NCI-H522 lung it was 41.3 µM; in the test on OVCAR-8 ovarian, 64.6 µM; in the test with SF-295 CNS it was 53.7 µM; with SK-MEL-5 melanoma it was 29.2 µM. For the same compound, the TGI was determined as 47.8 µM in the test on SW-620 colon, 77.4 µM in the test on UACC-257 melanoma and 54.7 µM in the test with UO-31 renal.

With `Cc1nn(C(=O)c2ccccc2O)c2c1C(c1ccccc1)SC(N)=N2` (stereo not drawn), the TGI in the test on COLO 205 colon, in the test on LOX IMVI melanoma, in the test with NCI-H23 lung, in the test with NCI-H522 lung, with OVCAR-8 ovarian and in the test with SF-295 CNS was greater than 10 µM in each case. In addition, the TGI in the test with SK-MEL-5 melanoma, with SW-620 colon and with UACC-257 melanoma was greater than 10 µM each time.

In the case of `O=c1ccn(C2OC(CO)C(O)C2O)c(=O)[nH]1` (stereo not drawn), the GI50 in the test with COLO 205 colon, in the test on LOX IMVI melanoma, in the test on NCI-H23 lung, in the test with OVCAR-8 ovarian, in the test with SF-295 CNS and with SK-MEL-5 melanoma was greater than 1000 µM in each case. In the test with SW-620 colon, the GI50 is greater than 1000 µM. The TGI with COLO 205 colon, in the test with LOX IMVI melanoma, in the test on NCI-H23 lung, in the test on NCI-H522 lung, in the test on OVCAR-8 ovarian and in the test with SF-295 CNS was greater than 1000 µM each time. The TGI in the test with SK-MEL-5 melanoma, in the test with SW-620 colon and in the test with UACC-257 melanoma was greater than 1000 µM each time.

`CC1=C2C(O)C(C(C)CO)C(O)CC2(C)C(O)CC1` (stereo not drawn): the TGI in the test on COLO 205 colon, in the test with LOX IMVI melanoma, in the test on NCI-H522 lung, in the test with OVCAR-8 ovarian, in the test on SF-295 CNS and in the test on SK-MEL-5 melanoma was greater than 100 µM throughout. The TGI in the test on SW-620 colon, with UACC-257 melanoma and in the test on UO-31 renal was greater than 100 µM each time.

Turning to `CC(=O)O[C@H]1C(N(C)C(=O)c2ccccc2)CC[C@]2(C)C3CC[C@@]4(C)C(CC(O)[C@@H]4C(C)N(C)C)[C@@H]3CCC12` (stereo partly drawn), the TGI in the test with COLO 205 colon, with LOX IMVI melanoma, in the test with NCI-H23 lung, with NCI-H522 lung, in the test with OVCAR-8 ovarian and in the test with SF-295 CNS was greater than 100 µM throughout. The TGI in the test on SK-MEL-5 melanoma, in the test on SW-620 colon and in the test on UACC-257 melanoma was greater than 100 µM in each case.

For the compound `Cc1nc(N)sc1C(=O)/C=C/c1ccc(/C=C/C(=O)c2sc(NC(=O)CCCCCCCCC(=O)Nc3nc(C)c(C(=O)/C=C/c4ccc(/C=C/C(=O)c5sc(N)nc5C)cc4)s3)nc2C)cc1`, the TGI in the test on COLO 205 colon, in the test on LOX IMVI melanoma, with NCI-H23 lung, in the test on NCI-H522 lung, in the test on OVCAR-8 ovarian and in the test on SF-295 CNS was greater than 100 µM throughout. Also, the TGI in the test with SW-620 colon, in the test with UACC-257 melanoma and with UO-31 renal was greater than 100 µM each time.

With `CCN(CC)CCC1CC/C(=C\c2ccc(OC)cc2)C1=O` (stereo not drawn), the TGI in the test on COLO 205 colon was 38.9 µM; in the test on LOX IMVI melanoma, greater than 100 µM; with NCI-H522 lung, greater than 100 µM; in the test with OVCAR-8 ovarian, greater than 100 µM; with SF-295 CNS it was greater than 100 µM; with SK-MEL-5 melanoma, 44 µM. Further, the TGI in the test with SW-620 colon was greater than 100 µM; in the test on UACC-257 melanoma, 77.6 µM; with UO-31 renal, greater than 100 µM.
